Calls of active or inactive are those of the source. The rule behind the calls is not given here.
test system: Jurkat NF-kB reporter, luminescence; assay: NF-kB reporter inhibition in Jurkat cells, dose response, selectivity assay for B-cell receptor NF-kB inhibitor project, cell-based, luminescence (AID 489006)

SMILES	IC50
Cc1ccc(C(=O)C[n+]2cc(-c3ccc(C)cc3)n3c2CCCCC3)cc1	8.37 µM
O=C(Nc1nc2c(Br)cc(Br)cc2c(=O)s1)c1ccco1	2.52 µM
COc1ccc(C(=O)Nc2ccc(OC)c([N+](=O)[O-])c2)cc1Br	> 80 µM (inactive)
COc1ccc(-c2noc(CCCC(=O)Nc3ccc(C(N)=O)cc3)n2)cc1	11.9 µM
CC(C)(C)c1ccc(-c2cc(N)n[nH]2)cc1	6.02 µM
Cc1cccn2c(=O)c3cc(C(=O)NC4CCCCC4)c(=N)n(CCN4CCOCC4)c3nc12	> 80 µM (inactive)
Cc1noc(C)c1CSc1nc2[nH]ncc2c(=O)n1-c1ccccc1	34.3 µM (inactive)
O=C(CN1C(=O)c2ccccc2S1(=O)=O)c1ccccc1Cl	1.26 µM
CCC(=O)N1c2ccccc2[C@@H](N(C(C)=O)c2ccccc2)C[C@H]1C	57 µM (inactive)
O=C(CCCN1C(=O)/C(=C/c2ccccc2Cl)SC1=S)Nc1ccccn1	9.52 µM
COCCCn1c(=O)/c(=C\c2cccc(OC)c2OC)s/c1=C(/C#N)C(=O)Nc1ccc(C(=O)O)cc1	> 80 µM (inactive)
NC(=O)C1CCN(C(=O)COc2ccc3ccccc3c2Br)CC1	> 80 µM (inactive)
CCN1C(=O)c2cccc3c(S(=O)(=O)Nc4ccccn4)ccc1c23	40.5 µM (inactive)
O=C(Nc1cccc(Oc2ccc3c(c2)C(=O)NC3=O)c1)c1cccs1	> 80 µM (inactive)
CC(C)C(c1nnnn1Cc1ccccc1)N(Cc1ccco1)Cc1cccs1 (stereo unspecified)	73.6 µM (inactive)
COc1ccc(OCc2cccc(C(=O)Nc3cc(C)on3)c2)cc1	3.77 µM
O=C(O)CCn1c(O)c(C=C2N=c3ccccc3=N2)sc1=S	1.46 µM
CC(=O)c1cn(CCOc2cc(C)ccc2C)c2ccccc12	> 80 µM (inactive)
O=C(CN1C(=O)c2ccccc2S1(=O)=O)c1ccc(OC(F)F)cc1	3.15 µM
Cc1ccc(/C=C2\SC(=S)N(CCCC(=O)Nc3ccc(O)cc3)C2=O)cc1	18.9 µM
CCN(CC(=O)Nc1c(F)cccc1F)C(=O)c1cc(S(=O)(=O)N(C)C)ccc1N1CCCC1	> 80 µM (inactive)
Cc1ccc(NC(=O)O/N=C/c2c(C)nn(C(C)(C)C)c2C)cc1Cl	< 0.16 µM
COc1cc(OC)cc(-c2cc3nc(C)c(CCC(=O)NCc4ccccc4)c(C)n3n2)c1	2.75 µM
Cc1ccc(/C=C2\SC(=S)N(CCCC(=O)Nc3ccccn3)C2=O)cc1	0.76 µM
Cc1cc2ccccn2c1C(=O)c1ccc(NN)c([N+](=O)[O-])c1	> 80 µM (inactive)
CNC(=O)CCc1nc(-c2ccc(C(C)(C)C)cc2)no1	> 80 µM (inactive)

SMILES	IC50
Cc1nc2cc(-c3cccc(F)c3)nn2c(C)c1CCC(=O)NC(C)CCc1ccco1 (stereo unspecified)	4.14 µM
CC(=O)c1cccc(S(=O)(=O)Nc2cc(C(F)(F)F)ccc2N2CCOCC2)c1	62.2 µM (inactive)
COc1cccc(/C=C2\SC(=S)N(CCCC(=O)NC3=NCCS3)C2=O)c1	25.9 µM (inactive)
Cn1c(=O)cc(OCCCC(=O)NC2CCCC2)c2ccccc21	39.5 µM (inactive)
CCOc1ccc(-c2noc(CCC(=O)O)n2)cc1	0.7 µM
CCn1c(=O)cc(SCC(=O)N2CCOCC2)c2ccccc21	> 80 µM (inactive)
COC(=O)c1[nH]c2ccc(C)cc2c1NC(=O)Nc1ccccc1OC	55.2 µM (inactive)
COc1cc(-c2nc3ccc(N4CCN(C)CC4)cc3[nH]2)cc(OC)c1OC	> 80 µM (inactive)
CC1CCc2c(sc3nc(C(C)(C)C)nc(N4CCN(C(=O)CCl)CC4)c23)C1 (stereo unspecified)	1.27 µM
CC(C)C[C@@H](N)c1nnc(SCC(=O)c2ccc(Cl)cc2)o1	11.3 µM
CCNc1nc(C)c2cc(Br)c(=O)n(CC)c2n1	7.89 µM
Cc1cc(OCC(=O)Nc2ccc(CCO)cc2)c2c(C)c(C)c(=O)oc2c1	> 80 µM (inactive)
CC(=C/c1ccco1)/C=N/NC(=O)CSc1nnc(SCc2ccc(C)cc2)s1	> 80 µM (inactive)
CCN(CC(=O)Nc1c(F)cccc1F)C(=O)c1cc([N+](=O)[O-])ccc1N1CCCCC1	> 80 µM (inactive)
CCN(CC)C(=O)c1ccc(S(=O)(=O)Cc2ccc(C)cc2)c([N+](=O)[O-])c1	7.08 µM
COc1cccc(Cn2nnc(C(=O)Nc3cc(Cl)ccc3OC)c2N)c1	> 80 µM (inactive)
CC1=CC(C)(C)Nc2ccc(OC(=O)CN3C(=O)c4ccccc4C3=O)cc21	1.28 µM
CC(C)(C)c1ccc(-c2noc(CCC(=O)N3CCOCC3)n2)cc1	> 80 µM (inactive)
COc1ccc(/C=C2\SC(=S)N(CCC(=O)Nc3ccc(C(=O)O)cc3)C2=O)cc1	> 80 µM (inactive)
Cc1cnc(NC(=O)Nc2ccc(Cl)cc2)s1	> 80 µM (inactive)
CCNC(=O)CCc1nc(-c2ccc(C(C)(C)C)cc2)no1	> 80 µM (inactive)
Cc1ccc(/C=C2\SC(=S)N(CCC(=O)NNC(=O)c3ccncc3)C2=O)cc1	> 80 µM (inactive)
O=C(CCCc1nc(-c2ccccc2Cl)no1)NC1CCCC1	1.02 µM
CC(=C\c1ccccc1)/C=C1/SC(=O)N(CCCC(=O)Nc2ccc(C(=O)O)cc2)C1=O	> 80 µM (inactive)
CCCC(=O)Nc1ccc(Sc2ccc([N+](=O)[O-])cc2)cc1	15.9 µM
